According to patent publication US20020137929A1, “1 - (3-heterocyclylphenyl) isothiourea, -isourea, -guanidine and -amidine herbicidal agents” (Intellectual Property Department, BASF Aktiengesellschaft, priority 1998, published 2002):

How the values were obtained:
ABUTH (Velvetleaf) = test: Postemergence herbicidal evaluation; type: in vivo, Abutilon theophrasti
Method in brief: (§1)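 Seedlings grown about two weeks were sprayed at 40 psi with compound dispersed in 50/50 acetone/water plus 0.5% TWEEN 20, at about 0.0156 to 0.500 kg/ha. Plants were kept in the greenhouse and scored 4–5 weeks later on a 0–9 visual scale against untreated controls.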

AMBEL (Ragweed, Common) [1] = test: Postemergence herbicidal evaluation; type: in vivo, Ambrosia artemisifolia
Method in brief: as §1

[2] = tested on: CHEAL (Lambsquarters, Common); test: Postemergence herbicidal evaluation; type: in vivo, Chenopodium album
Method in brief: as §1

ECHCG (Barnyardgrass) = test: Postemergence herbicidal evaluation; type: in vivo, Echinochloa crus-galli
Method in brief: as §1

[3] = tested on: GLXMAW (Soybean, Williams); test: Postemergence herbicidal evaluation; type: in vivo, Glycine max, (L.) Merr. cv Williams
Method in brief: as §1

ORYSAT (Rice, Tebonnet) = test: Postemergence herbicidal evaluation; type: in vivo, Oryza sativa, (L.) Tebonnet
Method in brief: as §1

ZEAMX (Corn, Field) = test: Postemergence herbicidal evaluation; type: in vivo, Zea mays
Method in brief: as §1

AMBEL (Ragweed, Common) [4] = test: Preemergence herbicidal evaluation; type: in vivo, Ambrosia artemisifolia; conditions: rated 4-5 weeks after treatment
Method in brief: (§2)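 In this greenhouse assay, monocot and dicot seeds are planted in soil and treated prior to emergence with an aqueous acetone spray (about 0.0156-0.500 kg/ha). Plants are assessed visually against control on a 0-9 scale after 4-5 weeks.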

CASOB (Sicklepod) = test: Preemergence herbicidal evaluation; type: in vivo, Cassia obtusifolia; conditions: rated 4-5 weeks after treatment
Method in brief: as §2

[5] = tested on: CHEAL (Lambsquarters, Common); test: Preemergence herbicidal evaluation; type: in vivo, Chenopodium album; conditions: rated 4-5 weeks after treatment
Method in brief: as §2

GALAP (Galium) = test: Preemergence herbicidal evaluation; type: in vivo, Galium aparine; conditions: rated 4-5 weeks after treatment
Method in brief: as §2

CYPSE (Flatsedge) [6] = test: Preemergence weed control under flooded paddy conditions; type: in vivo, Cyperus serotinus; conditions: rated 3-4 weeks after treatment
Method in brief: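 First, seeds or propagules go into the top 0.5 cm of silt loam; next, water is held 1.5 to 3 cm over the soil; then compound (50/50 acetone/water) is pipetted into it at about 0.0313 to 0.500 kg/ha; finally plants are rated visually 0-9 after three to four weeks.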

CYPIR (Rice Flatsedge) = test: Postemergence weed control under flooded paddy conditions; type: in vivo, Cyperus iria; conditions: postemergence weeds, rated 3 to 4 weeks after treatment
Method in brief: (§3)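 Containers holding 3–5 cm weeds and rice at 1.5–2.5 leaves are flooded to 1.5–3 cm above soil. Compound in 50/50 v/v aqueous/acetone is then added directly to the water, about 0.0313–0.500 kg/ha. Plants are kept in the greenhouse and rated 0–9 visually at 3–4 weeks.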

CYPSE (Flatsedge) [7] = test: as above; type: in vivo, Cyperus serotinus; conditions: postemergence weeds, rated 3 to 4 weeks after treatment
Method in brief: as §3

With `CCOC(=O)CN1C(=O)C(CC(=O)OC(C)C)SC1=Nc1cc(-n2c(=O)cc(C(F)(F)F)n(C)c2=O)c(F)cc1Cl` (centres unmarked) [Compound 60, 2-{{2-Chloro-5-[3,6-dihydro-3-methyl-2,6-dioxo-4-(trifluoromethyl)-1(2H)-pyrimidinyl]-4-fluoro-phenyl}imino}-4-oxo-3,5-thiazolidinediacetic acid, 3-ethyl isopropyl ester] the “Postemergence herbicidal rating ABUTH” value (ABUTH (Velvetleaf); Rate 0.0158 kg/ha) was 9.0, the “Postemergence herbicidal rating ABUTH” value (ABUTH (Velvetleaf); Rate 0.0315 kg/ha) was 9.0 and the “Postemergence herbicidal rating ABUTH” value (ABUTH (Velvetleaf); Rate 0.0630 kg/ha) was 9.0. For the same compound, the “Postemergence herbicidal rating AMBEL” value (AMBEL (Ragweed, Common) [1]; Rate 0.0158 kg/ha) was 7.0, the “Postemergence herbicidal rating AMBEL” value (AMBEL (Ragweed, Common) [1]; Rate 0.0315 kg/ha) was 9.0 and the “Postemergence herbicidal rating AMBEL” value (AMBEL (Ragweed, Common) [1]; Rate 0.0630 kg/ha) was 9.0. For the same compound, the “Postemergence herbicidal rating CHEAL” value ([2]; Rate 0.0158 kg/ha) was 4.0, the “Postemergence herbicidal rating CHEAL” value ([2]; Rate 0.0315 kg/ha) was 4.0 and the “Postemergence herbicidal rating CHEAL” value ([2]; Rate 0.0630 kg/ha) was 9.0. For the same compound, the “Postemergence herbicidal rating ECHCG” value (ECHCG (Barnyardgrass); Rate 0.0158 kg/ha) was 0.0, the “Postemergence herbicidal rating ECHCG” value (ECHCG (Barnyardgrass); Rate 0.0315 kg/ha) was 0.0 and the “Postemergence herbicidal rating ECHCG” value (ECHCG (Barnyardgrass); Rate 0.0630 kg/ha) was 0.0. The “Postemergence herbicidal rating GLXMAW” value ([3]; Rate 0.0158 kg/ha) was 6.5, the “Postemergence herbicidal rating GLXMAW” value ([3]; Rate 0.0315 kg/ha) was 6.5 and the “Postemergence herbicidal rating GLXMAW” value ([3]; Rate 0.0630 kg/ha) was 7.0. The “Postemergence herbicidal rating ORYSAT” value (ORYSAT (Rice, Tebonnet); Rate 0.0158 kg/ha) was 3.0, the “Postemergence herbicidal rating ORYSAT” value (ORYSAT (Rice, Tebonnet); Rate 0.0315 kg/ha) was 3.0 and the “Postemergence herbicidal rating ORYSAT” value (ORYSAT (Rice, Tebonnet); Rate 0.0630 kg/ha) was 5.0. For the same compound, the “Postemergence herbicidal rating ZEAMX” value (ZEAMX (Corn, Field); Rate 0.0158 kg/ha) was 5.0, the “Postemergence herbicidal rating ZEAMX” value (ZEAMX (Corn, Field); Rate 0.0315 kg/ha) was 5.0 and the “Postemergence herbicidal rating ZEAMX” value (ZEAMX (Corn, Field); Rate 0.0630 kg/ha) was 5.5. The “Preemergence herbicidal rating AMBEL” value (AMBEL (Ragweed, Common) [4]; rate 0.0156 kg/ha) was 0.0, the “Preemergence herbicidal rating AMBEL” value (AMBEL (Ragweed, Common) [4]; rate 0.0313 kg/ha) was 0.0 and the “Preemergence herbicidal rating AMBEL” value (AMBEL (Ragweed, Common) [4]; rate 0.0625 kg/ha) was 2.0. For the same compound, the “Preemergence herbicidal rating AMBEL” value (AMBEL (Ragweed, Common) [4]; rate 0.1250 kg/ha) was 7.0, the “Preemergence herbicidal rating AMBEL” value (AMBEL (Ragweed, Common) [4]; rate 0.2500 kg/ha) was 7.0 and the “Preemergence herbicidal rating AMBEL” value (AMBEL (Ragweed, Common) [4]; rate 0.5000 kg/ha) was 9.0. The “Preemergence herbicidal rating CASOB” value (CASOB (Sicklepod); rate 0.0156 kg/ha) was 0.0, the “Preemergence herbicidal rating CASOB” value (CASOB (Sicklepod); rate 0.0313 kg/ha) was 0.0 and the “Preemergence herbicidal rating CASOB” value (CASOB (Sicklepod); rate 0.0625 kg/ha) was 0.0. The “Preemergence herbicidal rating CASOB” value (CASOB (Sicklepod); rate 0.1250 kg/ha) was 1.0, the “Preemergence herbicidal rating CASOB” value (CASOB (Sicklepod); rate 0.2500 kg/ha) was 5.5 and the “Preemergence herbicidal rating CASOB” value (CASOB (Sicklepod); rate 0.5000 kg/ha) was 4.0. The “Preemergence herbicidal rating CHEAL” value ([5]; rate 0.0156 kg/ha) was 9.0, the “Preemergence herbicidal rating CHEAL” value ([5]; rate 0.0313 kg/ha) was 8.0 and the “Preemergence herbicidal rating CHEAL” value ([5]; rate 0.0625 kg/ha) was 9.0. For the same compound, the “Preemergence herbicidal rating CHEAL” value ([5]; rate 0.1250 kg/ha) was 9.0, the “Preemergence herbicidal rating CHEAL” value ([5]; rate 0.2500 kg/ha) was 9.0 and the “Preemergence herbicidal rating CHEAL” value ([5]; rate 0.5000 kg/ha) was 9.0. The “Preemergence herbicidal rating GALAP” value (GALAP (Galium); rate 0.0156 kg/ha) was 0.0, the “Preemergence herbicidal rating GALAP” value (GALAP (Galium); rate 0.0313 kg/ha) was 0.0 and the “Preemergence herbicidal rating GALAP” value (GALAP (Galium); rate 0.0625 kg/ha) was 0.0. For the same compound, the “Preemergence herbicidal rating GALAP” value (GALAP (Galium); rate 0.1250 kg/ha) was 0.0, the “Preemergence herbicidal rating GALAP” value (GALAP (Galium); rate 0.2500 kg/ha) was 0.0 and the “CYPSE herbicidal effect rating” value (CYPSE (Flatsedge) [6]; 0.0313 kg/ha) was 2.0. For the same compound, the “CYPSE herbicidal effect rating” value (CYPSE (Flatsedge) [6]; 0.0625 kg/ha) was 2.0, the “CYPSE herbicidal effect rating” value (CYPSE (Flatsedge) [6]; 0.1250 kg/ha) was 4.0 and the “CYPSE herbicidal effect rating” value (CYPSE (Flatsedge) [6]; 0.2500 kg/ha) was 4.0. The “Herbicidal rating CYPIR” value (CYPIR (Rice Flatsedge); Rate 0.0313 kg/ha) was 3.0, the “Herbicidal rating CYPIR” value (CYPIR (Rice Flatsedge); Rate 0.0625 kg/ha) was 3.0 and the “Herbicidal rating CYPIR” value (CYPIR (Rice Flatsedge); Rate 0.1250 kg/ha) was 6.0. For the same compound, the “Herbicidal rating CYPIR” value (CYPIR (Rice Flatsedge); Rate 0.2500 kg/ha) was 6.0, the “Herbicidal rating CYPSE” value (CYPSE (Flatsedge) [7]; Rate 0.0313 kg/ha) was 2.0 and the “Herbicidal rating CYPSE” value (CYPSE (Flatsedge) [7]; Rate 0.0625 kg/ha) was 2.0. For the same compound, the “Herbicidal rating CYPSE” value (CYPSE (Flatsedge) [7]; Rate 0.1250 kg/ha) was 4.0 and the “Herbicidal rating CYPSE” value (CYPSE (Flatsedge) [7]; Rate 0.2500 kg/ha) was 4.0.
